The text below walks through data of publication PMC7187199, “Investigation of a New Type I Baeyer–Villiger Monooxygenase from Amycolatopsis thermoflava Revealed High Thermodynamic but Limited Kinetic Stability” (Chembiochem, 2020).

One series concerns the target T1, TmCHMO (Thermocrispum municipale, UniProt A0A1L1QK39).
T1 sequence (A0A1L1QK39 1-541): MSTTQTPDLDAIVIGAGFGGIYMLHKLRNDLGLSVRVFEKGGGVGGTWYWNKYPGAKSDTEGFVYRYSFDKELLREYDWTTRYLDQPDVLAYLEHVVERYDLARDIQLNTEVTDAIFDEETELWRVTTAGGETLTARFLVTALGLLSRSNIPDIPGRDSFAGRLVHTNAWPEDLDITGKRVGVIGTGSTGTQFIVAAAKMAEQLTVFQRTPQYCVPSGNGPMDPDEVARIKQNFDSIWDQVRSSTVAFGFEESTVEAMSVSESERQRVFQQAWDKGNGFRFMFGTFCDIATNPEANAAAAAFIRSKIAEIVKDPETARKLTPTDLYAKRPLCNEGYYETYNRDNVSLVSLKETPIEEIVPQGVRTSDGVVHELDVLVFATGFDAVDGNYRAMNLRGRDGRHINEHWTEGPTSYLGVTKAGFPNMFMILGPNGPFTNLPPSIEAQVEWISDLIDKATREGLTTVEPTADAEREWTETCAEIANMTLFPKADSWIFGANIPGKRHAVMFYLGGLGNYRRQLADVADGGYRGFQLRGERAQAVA
In words: NADPH oxidation at […] nm. It counts as biochemical. Particulars: 0.5 mM cyclohexanone, 100 μM NADPH, 10 μM FAD, 50 mM Tris-HCl, 30 °C.

A further series addresses T2, CHMOAcineto (Acinetobacter johnsonii, UniProt P12015).
T2 construct: gene chnB
In words: NADPH oxidation at […] nm. It counts as biochemical. The note with it: 100 μM NADPH, 50 mM Tris-HCl, 30 °C.

Another series deals with O=C1CCCCC1. In words: purified protein. Particulars: 100 μM NADPH, 50 mM Tris-HCl, 30 °C.

T2 sequence (P12015 2-543): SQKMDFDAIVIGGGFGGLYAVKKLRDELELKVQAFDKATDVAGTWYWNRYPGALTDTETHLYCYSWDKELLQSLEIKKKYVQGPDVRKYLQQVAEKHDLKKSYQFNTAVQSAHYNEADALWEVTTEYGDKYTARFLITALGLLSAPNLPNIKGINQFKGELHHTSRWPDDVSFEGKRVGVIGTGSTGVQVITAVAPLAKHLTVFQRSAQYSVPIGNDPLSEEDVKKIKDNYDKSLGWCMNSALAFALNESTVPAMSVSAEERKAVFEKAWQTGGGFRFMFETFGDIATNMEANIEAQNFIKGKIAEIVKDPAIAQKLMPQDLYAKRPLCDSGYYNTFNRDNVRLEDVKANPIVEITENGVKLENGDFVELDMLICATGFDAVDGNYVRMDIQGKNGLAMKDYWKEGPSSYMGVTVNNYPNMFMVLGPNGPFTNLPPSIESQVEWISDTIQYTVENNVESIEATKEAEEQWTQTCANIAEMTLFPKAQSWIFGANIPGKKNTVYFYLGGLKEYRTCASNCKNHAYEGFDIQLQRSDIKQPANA

On to `O=C1CCCCC1` [cyclohexanone], for which the “NADPH oxidation at 340 nm” value on TmCHMO is “The activity was comparable to that of TmCHMO”. The Km on CHMOAcineto was found to be 6.74 ± 2 µM.
Regarding BVMOFlava (Amycolatopsis thermoflava), in the series with O=C1CCCCC1, the Michaelis-Menten constant (Km) came to 0.53 ± 0.1 µM and the catalytic constant (kcat) amounted to 1.5 ± 0.1 s⁻¹.
